Assay results published in paper PMC12086609, “Characterization of the Structure and Function of the Photosynthetic RC–LH1 Core Supercomplex From Rhodospirillum rubrum” (Physiologia Plantarum, 2025).

Assays:
[1] = target: T1, Rsp. rubrum RC–LH1 supercomplex (RC–LH1 monomer) (Rhodospirillum rubrum, UniProt P02947+P10717+Q2RQ23+Q2RQ26); assay: cryo-EM structure, […] Å; assay type: binding; details: native carotenoid of LH1, one per alpha-beta heterodimer (16)
T1 construct: gene pufL; native purification from phototrophic cells (beta-DDM, sucrose gradient); closed ring of 16 alpha-beta pairs around RC L, M, H; modelled alpha 45 and beta 44 residues

[2] = target: T1, Rsp. rubrum RC–LH1 supercomplex (RC–LH1 monomer); assay: cytochrome c2 oxidation at […] nm under […] nm light; assay type: biochemical; details: QB site of RC (L/M); 0-40 μM UQ2, 15 nM RC–LH1, 30 μM reduced horse-heart cytochrome c, HEPES pH 8.0, 0.01% β-DDM; apparent Km not determined
[3] = target: T2, Rba. sphaeroides WT RC–LH1 monomer (Cereibacter sphaeroides, UniProt P0C0Y8+P0C0Y9); assay: cytochrome c2 oxidation at […] nm under […] nm light; assay type: biochemical; details: QB site of RC (L/M); 0-40 μM UQ2, 15 nM RC–LH1, 30 μM reduced horse-heart cytochrome c, HEPES pH 8.0, 0.01% β-DDM; apparent Km not determined
T2 construct: gene pufL; native RC–LH1 monomer with open LH1 ring (contains PufX); with Reaction center protein H chain; Light-harvesting protein B-875 alpha chain (LH1 alpha); Light-harvesting protein B-875 beta chain (LH1 beta); Intrinsic membrane protein PufX

T1 sequence (P10717 2-276): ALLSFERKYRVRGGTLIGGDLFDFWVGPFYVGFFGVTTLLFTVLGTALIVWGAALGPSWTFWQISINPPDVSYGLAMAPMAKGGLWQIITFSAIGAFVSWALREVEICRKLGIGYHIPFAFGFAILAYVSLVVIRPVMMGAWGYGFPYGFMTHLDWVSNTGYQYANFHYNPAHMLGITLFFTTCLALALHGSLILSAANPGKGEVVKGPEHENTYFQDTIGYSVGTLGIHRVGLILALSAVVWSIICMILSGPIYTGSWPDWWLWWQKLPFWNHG
T1 sequence (Q2RQ26 1-306): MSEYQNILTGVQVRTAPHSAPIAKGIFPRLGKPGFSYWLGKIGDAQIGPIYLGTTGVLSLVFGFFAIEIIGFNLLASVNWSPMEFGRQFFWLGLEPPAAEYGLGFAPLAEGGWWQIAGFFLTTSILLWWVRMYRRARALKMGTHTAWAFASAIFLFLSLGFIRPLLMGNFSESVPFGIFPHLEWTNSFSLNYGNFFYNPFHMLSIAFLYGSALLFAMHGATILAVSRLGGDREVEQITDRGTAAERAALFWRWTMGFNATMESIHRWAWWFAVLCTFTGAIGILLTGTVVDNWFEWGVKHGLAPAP
T1 sequence (Q2RWS4 1-257 partner): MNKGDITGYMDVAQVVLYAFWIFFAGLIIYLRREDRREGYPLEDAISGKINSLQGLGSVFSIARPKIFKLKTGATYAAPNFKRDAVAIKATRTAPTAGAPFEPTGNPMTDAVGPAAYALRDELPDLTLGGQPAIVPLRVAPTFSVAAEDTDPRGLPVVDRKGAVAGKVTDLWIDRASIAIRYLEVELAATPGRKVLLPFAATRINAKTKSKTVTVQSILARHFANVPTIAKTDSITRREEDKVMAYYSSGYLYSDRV
T1 sequence (P02947 1-52): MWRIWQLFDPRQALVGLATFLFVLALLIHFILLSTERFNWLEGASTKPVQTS
T1 sequence (Q2RQ23 3-56): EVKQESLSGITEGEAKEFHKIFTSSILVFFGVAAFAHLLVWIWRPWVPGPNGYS

With `COC(C)(C)C/C=C/C(C)=C/C=C/C(C)=C/C=C/C(C)=C/C=C/C=C(C)/C=C/C=C(C)/C=C/C=C(C)/C=C/CC(C)(C)OC` [spirilloxanthin] the “cryo-EM structure, 3.0 Å” value [1] was “The LH1 α‐polypeptide is light blue sky, the β‐polypeptide is pink, spirilloxanthin is green”.
`COC1=C(OC)C(=O)C(C/C=C(\C)CCC=C(C)C)=C(C)C1=O` [ubiquinone‐2] was tested, and the “cytochrome c oxidation at 550 nm under 880 nm light” value [2] was “maximum quinone/quinol exchange rate for Rsp. rubrum RC–LH1 monomer” and the “cytochrome c2 oxidation at 550 nm under 880 nm light” value [3] was “open RC–LH1 monomer of Rba. sphaeroides WT”.
